Where a SMILES comes first, the peptide text is derived from it. Bridges are numbered along the chain shown (N, C = ends). [ ]: non-standard residue; d: D form. The star is where a group is joined. ξ: configuration not given here. Phe(4-COOH) = N[C@@H](Cc1ccc(C(=O)O)cc1)C(=O)O; Ala(thiazol-5-yl) = N[C@@H](Cc1cncs1)C(=O)O; Bip = N[C@@H](Cc1ccc(-c2ccccc2)cc1)C(=O)O; Phe(3-Me) = Cc1cccc(C[C@H](N)C(=O)O)c1; hArg = N=C(N)NCCCC[C@H](N)C(=O)O; 4Pal = N[C@@H](Cc1ccncc1)C(=O)O; 2Thi = N[C@@H](Cc1cccs1)C(=O)O; Cha = N[C@@H](CC1CCCCC1)C(=O)O; Cit = NC(=O)NCCC[C@H](N)C(=O)O; Carboxymethyl = O=C(O)C*; Nle = CCCC[C@H](N)C(=O)O; Orn = NCCC[C@H](N)C(=O)O; Dab = NCC[C@H](N)C(=O)O; Dap = NC[C@H](N)C(=O)O; ξPra = C#CCC(N)C(=O)O
Molecular target: T1, human PD-1 / PD-L1-Ig binding on Jurkat cell line over-expressing human PD-1 (Jurkat-PD-1) (Homo sapiens, UniProt Q15116)
T1 construct: expressed in transfected cells; host or cells: Jurkat
T1 sequence (Q15116 25-288): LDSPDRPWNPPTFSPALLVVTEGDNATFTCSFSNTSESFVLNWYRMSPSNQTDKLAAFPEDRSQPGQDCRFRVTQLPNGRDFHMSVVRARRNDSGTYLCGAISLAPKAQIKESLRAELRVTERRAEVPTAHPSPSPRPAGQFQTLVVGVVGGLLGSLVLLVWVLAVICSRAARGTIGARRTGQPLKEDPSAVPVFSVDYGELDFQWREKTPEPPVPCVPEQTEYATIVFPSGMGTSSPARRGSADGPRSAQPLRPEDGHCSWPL
Assay: Jurkat-PD-1 Cell Binding High-Content Screening Assay (CBA)
Format: cell-based
Conditions: Jurkat-PD-1 cells, PE-labeled PD-L1-Ig 20 nM final; read-out: Jurkat HPD1_PDL1 IC50
Summary of the method: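 Binding of fluorescent PD-L1-Ig (phycoerythrin linked via the Ig tag, 20 nM final) to PD-1-overexpressing Jurkat cells was imaged after a 2 h, 37° C compound pretreatment and 1 hour ligand incubation.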

| IC50 [nM] | Compound |
| --- | --- |
| 7.2 | C#CCC(NC(=O)[C@H](CCN)NC(=O)[C@@H]1CSCC(=O)N[C@@H](Cc2ccncc2)C(=O)N[C@@H](Cc2ccc(OCC(=O)O)cc2)C(=O)N[C@@H](CC(=O)O)C(=O)N[C@@H](Cc2c[nH]c3ccccc23)C(=O)N[C@@H](C(C)C)C(=O)N[C@@H](Cc2ccc(-c3ccccc3)cc2)C(=O)N[C@@H]([C@@H](C)CC)C(=O)N[C@@H](CCCN)C(=O)N[C@H](CC(C)C)C(=O)N[C@@H](CCN)C(=O)N[C@@H](CC(C)C)C(=O)N[C@@H](C(C)C)C(=O)N[C@@H]([C@@H](C)O)C(=O)N1)C(N)=O (stereo partly drawn) [Compound 1759] ({CH2CO}-[4Pal]Y(Carboxymethyl)DWV[Bip]I[Orn][dL][Dab]LVTC[Dab][ξPra]-NH2; thioether N-14) |
| 42.8 | CC(C)C[C@H]1NC(=O)[C@H](CCCN)NC(=O)[C@H](CCC(=O)O)NC(=O)[C@H](Cc2ccc(-c3ccccc3)cc2)NC(=O)[C@H](C(C)C)NC(=O)[C@H](Cc2c[nH]c3ccccc23)NC(=O)[C@H](CC(=O)O)NC(=O)[C@H](Cc2ccc(OCC(=O)O)cc2)NC(=O)[C@H](CN)NC(=O)CSC[C@@H](C(=O)N[C@@H](C)C(N)=O)NC(=O)[C@H]([C@@H](C)O)NC(=O)[C@H](C(C)C)NC(=O)[C@H](Cc2cncs2)NC(=O)[C@H](CCN)NC1=O [Compound 1503] ({CH2CO}-[Dap]Y(Carboxymethyl)DWV[Bip]E[Orn][dL][Dab][Ala(thiazol-5-yl)]VTCA-NH2; thioether N-14) |
| 24.5 | Cc1cccc(C[C@@H]2NC(=O)[C@H](CC(=O)O)NC(=O)[C@H](Cc3ccc(C(=O)O)cc3)NC(=O)[C@H](Cc3ccncc3)NC(=O)CSC[C@@H](C(N)=O)NC(=O)[C@H](CC(=O)O)NC(=O)[C@H](C(C)C)NC(=O)[C@H](CC3CCCCC3)NC(=O)[C@H](CCN)NC(=O)[C@@H](CC(C)C)NC(=O)[C@H](CCCN)NC(=O)[C@H](CCCNC(N)=O)NC(=O)[C@H](Cc3ccc(-c4ccccc4)cc3)NC(=O)[C@H](C(C)C)NC2=O)c1 [Compound 2270] ({CH2CO}-[4Pal][Phe(4-COOH)]D[Phe(3-Me)]V[Bip][Cit][Orn][dL][Dab][Cha]VDC-NH2; thioether N-14) |
| 48.9 | CCCC[C@@H]1NC(=O)[C@H](CCCNC(=N)N)NC(=O)[C@@H](CC(C)C)NC(=O)[C@H](CCCN)NC(=O)[C@H]([C@@H](C)CC)NC(=O)[C@H](Cc2ccc(-c3ccccc3)cc2)NC(=O)[C@H](C(C)C)NC(=O)[C@H](Cc2c[nH]c3ccccc23)NC(=O)[C@H](CC(=O)O)NC(=O)[C@H](Cc2ccc(O)cc2)NC(=O)[C@H](Cc2ccc(OCC(=O)O)cc2)NC(=O)CSC[C@@H](C(=O)N[C@@H](C)C(N)=O)NC(=O)[C@H]([C@@H](C)O)NC(=O)[C@H](C(C)C)NC1=O [Compound 1150] ({CH2CO}-Y(Carboxymethyl)YDWV[Bip]I[Orn][dL]R[Nle]VTCA-NH2; thioether N-14) |

Second part, the compound before the results:

| Compound | IC50 [nM] |
| --- | --- |
| Cc1cccc(C[C@@H]2NC(=O)[C@H](CC(=O)O)NC(=O)[C@H](Cc3ccc(C(=O)O)cc3)NC(=O)[C@H](Cc3ccc(OCC(=O)O)cc3)NC(=O)CSC[C@@H](C(N)=O)NC(=O)[C@H]([C@@H](C)O)NC(=O)[C@H](C(C)C)NC(=O)[C@H](CC(C)C)NC(=O)[C@H](CCN)NC(=O)[C@@H](CC(C)C)NC(=O)[C@H](CCCN)NC(=O)[C@H](CCC(=O)O)NC(=O)[C@H](Cc3ccc(-c4ccccc4)cc3)NC(=O)[C@H](C(C)C)NC2=O)c1 [Compound 1556] ({CH2CO}-Y(Carboxymethyl)[Phe(4-COOH)]D[Phe(3-Me)]V[Bip]E[Orn][dL][Dab]LVTC-NH2; thioether N-14) | 90.9 |
| CC(C)C[C@@H]1NC(=O)[C@H](Cc2c[nH]c3ccccc23)NC(=O)[C@H](CC(=O)O)NC(=O)[C@H](Cc2ccc(O)cc2)NC(=O)[C@H](Cc2ccccc2)NC(=O)CSC[C@@H](C(=O)NCC(N)=O)NC(=O)[C@H](CO)NC(=O)[C@H](C(C)C)NC(=O)[C@H](CC(C)C)NC(=O)[C@H](CC(N)=O)NC(=O)[C@@H](CC(C)C)NC(=O)[C@H](CCCN)NC(=O)[C@H](C(C)C)NC(=O)[C@H](Cc2ccc(-c3ccccc3)cc2)NC1=O [Compound 1067] ({CH2CO}-FYDWL[Bip]V[Orn][dL]NLVSCG-NH2; thioether N-14) | 22.2 |
| CC(C)C[C@H]1NC(=O)[C@H](CCCN)NC(=O)[C@H](CCC(=O)O)NC(=O)[C@H](Cc2ccc(-c3ccccc3)cc2)NC(=O)[C@H](C(C)C)NC(=O)[C@H](Cc2cccs2)NC(=O)[C@H](CC(=O)O)NC(=O)[C@H](Cc2ccncc2)NC(=O)[C@H](CN)NC(=O)CSC[C@@H](C(=O)N[C@@H](C)C(N)=O)NC(=O)[C@H]([C@@H](C)O)NC(=O)[C@H](C(C)C)NC(=O)[C@H](CC2CCCCC2)NC(=O)[C@H](CCN)NC1=O [Compound 2201] ({CH2CO}-[Dap][4Pal]D[2Thi]V[Bip]E[Orn][dL][Dab][Cha]VTCA-NH2; thioether N-14) | 22.5 |
| CC(C)C[C@@H]1NC(=O)[C@H](CCN)NC(=O)[C@@H](CC(C)C)NC(=O)[C@H](CCCN)NC(=O)[C@H](CCCNC(N)=O)NC(=O)[C@H](Cc2ccc(-c3ccccc3)cc2)NC(=O)[C@H](C(C)C)NC(=O)[C@H](Cc2c[nH]c3ccccc23)NC(=O)[C@H](CC(=O)O)NC(=O)[C@H](Cc2ccc(OCC(=O)O)cc2)NC(=O)[C@H](Cc2ccncc2)NC(=O)CSC[C@@H](C(=O)N[C@@H](C)C(N)=O)NC(=O)[C@H]([C@@H](C)O)NC(=O)[C@H](C(C)C)NC1=O [Compound 1042] ({CH2CO}-[4Pal]Y(Carboxymethyl)DWV[Bip][Cit][Orn][dL][Dab]LVTCA-NH2; thioether N-14) | 13 |
| CC(C)C[C@H]1NC(=O)[C@H](CCCN)NC(=O)[C@H](CCC(=O)O)NC(=O)[C@H](Cc2ccc(-c3ccccc3)cc2)NC(=O)[C@H](C(C)C)NC(=O)[C@H](Cc2ccccc2F)NC(=O)[C@H](CC(=O)O)NC(=O)[C@H](Cc2ccc(OCC(=O)O)cc2)NC(=O)[C@H](CN)NC(=O)CSC[C@@H](C(=O)N[C@@H](C)C(N)=O)NC(=O)[C@H]([C@@H](C)O)NC(=O)[C@H](C(C)C)NC(=O)[C@H](CC2CCCCC2)NC(=O)[C@H](CCN)NC1=O [Compound 2150] | 7.5 |
| CC(C)[C@@H]1NC(=O)[C@H](Cc2c[nH]c3ccccc23)NC(=O)[C@H](CC(=O)O)NC(=O)[C@H](Cc2ccc(OCC(=O)O)cc2)NC(=O)[C@H](CCCCNC(=N)N)NC(=O)CSC[C@@H](C(=O)N[C@@H](CC(N)=O)C(N)=O)NC(=O)[C@H](CO)NC(=O)[C@H](C(C)C)NC(=O)[C@H](CC2CCCCC2)NC(=O)[C@H](CCN)NC(=O)[C@@H](C)NC(=O)[C@H](CCCN)NC(=O)[C@H](CC(N)=O)NC(=O)[C@H](Cc2ccc(-c3ccccc3)cc2)NC1=O [Compound 2554] ({CH2CO}-[hArg]Y(Carboxymethyl)DWV[Bip]N[Orn][dA][Dab][Cha]VSCN-NH2; thioether N-14) | 16.9 |
| CC(C)C[C@H]1NC(=O)[C@H](CCCN)NC(=O)[C@H](CCN)NC(=O)[C@H](Cc2ccc(-c3ccccc3)cc2)NC(=O)[C@H](C(C)C)NC(=O)[C@H](Cc2c[nH]c3ccccc23)NC(=O)[C@H](CC(=O)O)NC(=O)[C@H](Cc2ccc(O)cc2)NC(=O)[C@H](CC(N)=O)NC(=O)CSC[C@@H](C(=O)N[C@@H](C)C(N)=O)NC(=O)[C@H]([C@@H](C)O)NC(=O)[C@H](C(C)C)NC(=O)[C@H](CC2CCCCC2)NC(=O)[C@H](CCN)NC1=O [Compound 1379] | 33 |
